Measurements from US11479604B2, “Immunomodulatory peptides and methods for modulating the immune system in a subject” (Recepta Biopharma S.A., priority 2017, dated 2022).
“Also recorded” adds a separate entry of the source.

How the values were obtained:
[1] = tested on: B16F10-Nex2 melanoma cells; assay: Prophylactic adoptive transfer of peptide-stimulated dendritic cells, metastatic melanoma; type: in vivo, syngeneic mice; conditions: DCs incubated with 50 μg/ml peptide, with or without tumor cell lysate; s.c.; tumor challenge day 14, count day 29
Method: DCs were obtained from the bone marrow of 6 to 8-week-old C57Bl6 mice. Briefly, femora and tibiae from mice were removed and stripped of muscles and tendons; both bone ends were cut, and bone marrow was extracted by placing the bone pieces into 1-ml tips, which in turn were inserted into 15-ml tubes and centrifuged for 10 minutes at 1500 rpm. Cells were resuspended in DMEM and cell clusters were dissociated by repeated pipetting. The total bone marrow cells were cultured in 100-mm treated tissue culture dish in 10 ml of R10 medium (DMEM medium supplemented with 2 mM glutamine, 10,000 U/ml penicillin, 10 mg/ml streptomycin, 50 μM 2-mercaptoethanol, 1 mM sodium pyruvate, MEM-nonessential aminoacids, MEM Vitamin solution, 10% heat-inactivated fetal bovine serum and GM-CSF (20 ng/ml) and IL-4 (40 ng/ml). Fresh medium (3 ml) with GM-CSF (200 ng/ml) and IL-4 (400 ng/ml) was added every 3 days. On day 7, adherent cells, that were harvested using PBS 2 mM EDTA, together with the non-adherent cells were pooled and used as the starting cell source for the experiments. BMDC Protocol 2
DCs were inoculated s.c. in syngeneic mice. On day 14, mice were inoculated i.v. with melanoma tumor cells (5×10^5 cells) and on day 29, the lung melanotic nodules were counted.

[2] = tested on: Myeloid DCs stimulated with recombinant mouse MIF; assay: Western blotting of MIF signalling in dendritic cells pre-treated with peptide; type: cell-based
Method: Protein lysates were separated by electrophoresis, and immunoblotting analyses were performed for: total AKT, total p44/42 MAPK (ERK1/2), total IKKα, total IkBα, total NF-kB p65, phospho-AKT (Ser473), phospho-ERK1/2 (Thr202/Tyr204), phospho-IKKα/β (Ser176/180), phospho-IkBα (Ser32) and phospho-NFkB p65 (Ser536). GAPDH was assayed for loading control. HRP-conjugated secondary antibodies were used, followed by incubation with the ECL substrate (Millipore, Billerica, Mass.). All primary and secondary antibodies were purchased from Cell Signaling Technologies (Beverly, Mass., USA). Anti-CD74 receptor was also assayed (Abcam, Cambridge, UK). Phosphorylation ratios were quantified using ImageJ software. Results are represented in arbitrary units normalized to untreated control lanes.
Early incubation with MIF increased p-Akt (Ser473). […] MIF also triggered p-ERK1/2 formation in DCs.

[3] = tested on: mo-DC obtained from cancer patients' monocytes; assay: Surface phenotype of mo-DC from cancer patients; type: cell-based, human
Method: Peripheral blood mononuclear cells (PBMCs) were isolated by centrifugation over Ficoll-Paque Plus (GE Healthcare). After a 2 h-incubation in plastic 6-well plates, non-adherent cells were removed from culture and adherent cells (monocytes) were cultivated for 7 days in RPMI-1640 culture medium (Gibco, Grand Island, N.Y., USA), supplemented with 10% FCS (Gibco) plus antibiotic-antimycotic (Gibco) and in the presence of GM-CSF (50 ng/ml—Peprotech, Mexico) and IL-4 (50 ng/ml—Peprotech). At day 5 of culture TNF-α (50 ng/ml; Peprotech, Mexico) was added for mo-DC maturation.
Human cells were analyzed in a similar manner, but staining was performed in BSA-PBS, without EDTA. Antibodies against CD11c, CD14, CD80, CD83, CD86, HLA-ABC, HLA-DR, CCR7, PD-L1, conjugated with different fluorochromes and live/dead labeling (Molecular Probes, Oregon, USA) were used. Acquisition was performed in a FACSCanto II analyzer (BD Biosciences) and analyzed with the FlowJo Software X.10.07r2 (Tree Star).
Since it is well known that mo-DC from cancer patients can be functionally biased, but are not always so, the patients were separated into two groups, according to their mo-DC ability to induce allogeneic T cell proliferation. Patients whose mo-DC induced less than 35% of the phytohemagglutinin A (PHA)-induced response constituted one group (“defective”) and those whose mo-DC induced a response higher than 35% of the PHA response, the other (“normal”).

[4] = tested on: CD11c+, MHC II+ bone marrow DCs; assay: Marker expression of bone marrow DCs with or without Poly I:C (flow cytometry); type: cell-based, C57Bl6 mice; conditions: 60 h
Method: DCs were obtained from the bone marrow of 6 to 8-week-old C57Bl6 mice. Briefly, femora and tibiae from mice were removed and stripped of muscles and tendons; both bone ends were cut and bone marrow was flushed out with RPMI 1640 medium using a 21-gauge needle and syringe. Cell clusters were dissociated by passing through a cell strainer and 0.45 M ammonium chloride was added for red cell lysis. After washing the cell suspension twice in RPMI 1640, 10×10^6 bone marrow cells per well were cultured in non-treated tissue-culture 6-well plates with 4 ml of complete medium (RPMI 1640 supplemented with 2 mM glutamine, 10,000 U/mL penicillin, 10 mg/mL streptomycin, 50 μM 2-mercaptoethanol, 10% heat-inactivated fetal calf serum with GM-CSF (50 ng/ml). Half of the medium was removed on day 2 and new medium supplemented with GM-CSF (100 ng/ml) and warmed at 37° C. was added. The culture medium was entirely discarded on day 3 and replaced by fresh warmed medium with GM-CSF (50 ng/ml). On day 6, non-adherent cells in the culture supernatant and loosely adherent cells harvested by gentle washing with PBS were pooled and used as the starting cell source for the experiments.
For murine cell analysis, these were stained in ice-cold PBS containing BSA (0.5%) and EDTA (2 mM) using appropriate antibody-fluorophore conjugates. Multiparameter analysis was performed on a BD FACSCanto II analyzer (BD Biosciences) and analyzed with FlowJo software (Tree Star). The following antibodies were used: anti-MHC Class II, anti-CD11c, anti-CD8a, anti-CD3e, anti-CD4, anti-CD86, anti-CD40, anti-CD80, Prior to acquisition, cells were resuspended in PBS/BSA 0.5%/EDTA (2 mM).
DCs were centrifuged and washed once with MACS buffer. Cells (10^6) were resuspended in 45 μl of buffer and 5 μl of antibodies/fluorophore, CD11c APC, MHC II PE, CD80 FITC, CD86 VioBlue and CD40 PE. The samples were acquired in BD FACS Canto II using the FacsDiva software. The data were analyzed by using the FlowJo software.

[5] = 100 μg/ml peptide + 12.5 μg/ml Poly I:C

In the case of [CARGETARATFAYWGQGC], NH2 (C-C) [Rb9], the “protective effect of peptide-stimulated DCs (lung melanotic nodules)” value [1] was “remarkable protective effect”, the ERK1/2 phosphorylation ([2]; DCs pre-incubated with peptide 6 h, then rMIF) was “reduced p-ERK1/2” and the “Akt phosphorylation (Ser473)” value ([2]; DCs pre-incubated with peptide 6 h, then rMIF, early (2 min), vs rMIF alone) was “Phosphorylation increased even more”. The “NFkB p65 phosphorylation (Ser536)” value ([2]; DCs pre-stimulated 6 h, then recombinant-MIF, 5, 10 and 20 min) was “tended to attenuate the MIF response; also recorded: decreased intracellular NFkB p65 phosphorylation”, the “phosphorylation of IKKαβ and IkBα” value ([2]; DCs pre-stimulated 6 h, then recombinant-MIF, short incubation) was “tended to attenuate the MIF response; also recorded: decreased IKKαβ and IkBα” and the “effects on surface phenotype of cancer patients' mo-DC” value ([3]; all patients) was “heterogeneous”. For the same substance, the “effect on phenotype (differentiation, maturation) of "defective" mo-DC” value ([3]; patients whose mo-DC induced less than 35% of the PHA-induced response) was “clearly affected the phenotype”, the “effect on phenotype of "normal" mo-DC” value ([3]; patients whose mo-DC induced more than 35% of the PHA response) was “little effect” and the “CD40 expression over Poly I:C” value [4, 5] was “stimulated CD40 over Poly I:C much like Rb9”. For the same substance, the “CD86 expression over Poly I:C” value [4, 5] was “stimulated CD86 over Poly I:C” and the “expression of CD80” value ([4]; 100 μg/ml peptide, with or without Poly I:C) was “similar”.
